From the supplement of paper PMC11061612

Assays:
Assay in all cases: Bliss excess, mean over the matrix (fraction); higher = more synergy
[1] = test system: OV-90 (Ovarian Carcinoma)
Procedure, shortened: (§1)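 After 24 hours at 37°C and 5% CO2 in 1536-well plates, cells in DMEM/F12 or RPMI plus 10% FBS received two-drug dose matrices for 72 hours. Viability came from CellTiter-Glo 2.0 luminescence and was scaled as inhibition, anchored at 0 by vehicle wells and at 1 by blank wells. Combination Emax is taken as the second-highest inhibition in the matrix, and Bliss excess as the observed combination effect less EA + EB − EA·EB, with EA and EB the single-agent effects.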

[2] = test system: HSC-3 (Oral Cavity Carcinoma)
Procedure, shortened: as §1

[3] = test system: COLO-684 (Endometrial Carcinoma)
Procedure, shortened: as §1

[4] = test system: AsPC-1 (Pancreatic Carcinoma)
Procedure, shortened: as §1

[5] = test system: OCI-AML5 (Acute Myeloid Leukemia)
Procedure, shortened: as §1

[6] = test system: NCI-H1623 (Lung Adenocarcinoma)
Procedure, shortened: as §1

CHL-1 (Melanoma) = test system: CHL-1 (Melanoma)
Procedure, shortened: as §1

[7] = test system: Caov-3 (Ovarian Carcinoma)
Procedure, shortened: as §1

786-0 (Kidney Carcinoma) = test system: 786-0 (Kidney Carcinoma)
Procedure, shortened: as §1

[8] = test system: PC-14 (Lung Adenocarcinoma)
Procedure, shortened: as §1

[9] = test system: FLO-1 (Esophageal Adenocarcinoma)
Procedure, shortened: as §1

HuO-3N1 (Osteosarcoma) = test system: HuO-3N1 (Osteosarcoma)
Procedure, shortened: as §1

[10] = test system: PANC-02-03 (Pancreatic Carcinoma)
Procedure, shortened: as §1

[11] = test system: EB-3 (Burkitt's Lymphoma)
Procedure, shortened: as §1

[12] = test system: SNU-175 (Colorectal Carcinoma)
Procedure, shortened: as §1

[13] = test system: NCI-H1155 (Non-Small Cell Lung Carcinoma)
Procedure, shortened: as §1

[14] = test system: AN3-CA (Endometrial Carcinoma)
Procedure, shortened: as §1

[15] = test system: NCI-H1755 (Lung Adenocarcinoma)
Procedure, shortened: as §1

KYM-1 (Rhabdomyosarcoma) = test system: KYM-1 (Rhabdomyosarcoma)
Procedure, shortened: as §1

[16] = test system: NCI-H196 (Small Cell Lung Carcinoma)
Procedure, shortened: as §1

Structure (SMILES) | Bliss excess [1] | Bliss excess [2] | Bliss excess [3] | Bliss excess [4] | Bliss excess [5] | Bliss excess [6] | Bliss excess (CHL-1 (Melanoma)) | Bliss excess [7] | Bliss excess (786-0 (Kidney Carcinoma)) | Bliss excess [8] | Bliss excess [9] | Bliss excess (HuO-3N1 (Osteosarcoma)) | Bliss excess [10] | Bliss excess [11] | Bliss excess [12] | Bliss excess [13] | Bliss excess [14] | Bliss excess [15] | Bliss excess (KYM-1 (Rhabdomyosarcoma)) | Bliss excess [16]
CCN(CCO)CCCOc1ccc2c(Nc3cc(CC(=O)Nc4cccc(F)c4)[nH]n3)ncnc2c1 [AZD2811] + O=C(c1cc(Cc2n[nH]c(=O)c3ccccc23)ccc1F)N1CCN(C(=O)C2CC2)CC1 [Olaparib] (first compound max 1 µM, 7x7, partner max 10 µM) | -0.0026 | 0.0273 | -0.0102 | -0.0273 | -0.0224 | -0.0526 | -0.0035 | -0.0444 | -0.0274 | 0.0228 | -0.0153 | -0.0185 | 0.0133 | -0.0307 | -0.0141 | 0.0393 | -0.0011 | 0.0146 | 0.0071 | -0.0193
CN(CCO)CC[C@H](CSc1ccccc1)Nc1ccc(S(=O)(=O)NC(=O)c2ccc(N3CCC([C@@H](O)c4ccccc4-c4ccc(Cl)cc4)CC3)cc2)cc1S(=O)(=O)C(F)(F)F [AZD4320] + C1CN(CCC1(C(=O)N[C@@H](CCO)C2=CC=C(C=C2)Cl)N)C3=NC=NC4=C3C=CN4 [Capivasertib] (first compound max 1 µM, 7x7, partner max 3 µM) | -0.0635 | -0.037 | -0.0157 | -0.0665 | 0.0104 | -0.002 | -0.028 | -0.0309 | -0.0318 | -0.03 | -0.039 | -0.0109 | -0.0617 | -0.0462 | -0.0205 | 0.0147 | -0.0186 | -0.0221 | -0.021 | -0.0297
CN(CCO)CC[C@H](CSc1ccccc1)Nc1ccc(S(=O)(=O)NC(=O)c2ccc(N3CCC([C@@H](O)c4ccccc4-c4ccc(Cl)cc4)CC3)cc2)cc1S(=O)(=O)C(F)(F)F [AZD4320] + C=CCn1c(=O)c2cnc(Nc3ccc(N4CCN(C)CC4)cc3)nc2n1-c1cccc(C(C)(C)O)n1 [AZD1775] (first compound max 1 µM, partner max 1 µM) | 0.0909 | -0.0083 | -0.0301 | 0.047 | 0.0099 | 0.0318 | 0.0509 | 0.0779 | -0.0685 | 0.0069 | 0.0293 | -0.0135 | 0.0045 | -0.0269 | -0.0371 | 0.0675 | -0.0004 | -0.0201 | 0.0515 | 0.0268
CN(CCO)CC[C@H](CSc1ccccc1)Nc1ccc(S(=O)(=O)NC(=O)c2ccc(N3CCC([C@@H](O)c4ccccc4-c4ccc(Cl)cc4)CC3)cc2)cc1S(=O)(=O)C(F)(F)F [AZD4320] + CCN(CCO)CCCOc1ccc2c(Nc3cc(CC(=O)Nc4cccc(F)c4)[nH]n3)ncnc2c1 [AZD2811] (first compound max 1 µM, 7x7, partner max 1 µM) | 0.0409 | 0.0257 | -0.0217 | -0.0294 | -0.004 | -0.0045 | 0.133 | 0.0419 | -0.0374 | 0.0099 | 0.0895 | -0.0051 | -0.0246 | -0.0065 | 0.0362 | 0.127 | 0.101 | -0.0024 | -0.01 | -0.0513
CN(CCO)CC[C@H](CSc1ccccc1)Nc1ccc(S(=O)(=O)NC(=O)c2ccc(N3CCC([C@@H](O)c4ccccc4-c4ccc(Cl)cc4)CC3)cc2)cc1S(=O)(=O)C(F)(F)F [AZD4320] + CN(C)CCCOc1ccc(-c2ccc3ncc4c(c3c2)n(C2CCOCC2)c(=O)n4C)cn1 [AZD0156] (first compound max 1 µM, 7x7, partner max 1 µM) | -0.0141 | -0.0532 | -0.0218 | -0.0506 | -0.0015 | -0.071 | -0.0242 | -0.0198 | -0.0503 | -0.019 | 0.0007 | -0.0021 | -0.0553 | -0.0389 | -0.0219 | -0.0105 | -0.0153 | -0.0164 | -0.0256 | -0.0414
CN(CCO)CC[C@H](CSc1ccccc1)Nc1ccc(S(=O)(=O)NC(=O)c2ccc(N3CCC([C@@H](O)c4ccccc4-c4ccc(Cl)cc4)CC3)cc2)cc1S(=O)(=O)C(F)(F)F [AZD4320] + C[C@@H]1COCCN1C2=NC(=NC(=C2)C3(CC3)[S@](=N)(=O)C)C4=C5C=CNC5=NC=C4 [AZD6738] (first compound max 1 µM, 7x7, partner max 10 µM) | -0.0354 | -0.054 | -0.0589 | -0.109 | 0.0284 | -0.0101 | 0.0607 | -0.0186 | -0.0263 | -0.0133 | -0.0574 | 0.0154 | -0.0584 | -0.0287 | 0.0023 | 0.0351 | -0.0091 | -0.0214 | 0.0286 | -0.0112
CCc1c2c(nc3ccc(O)cc13)-c1cc3c(c(=O)n1C2)COC(=O)[C@]3(O)CC [SN-38] + O=C(c1cc(Cc2n[nH]c(=O)c3ccccc23)ccc1F)N1CCN(C(=O)C2CC2)CC1 [Olaparib] (first compound max 0.3 µM, 7x7, partner max 10 µM) | 0.0633 | 0.0263 | -0.0188 | -0.0277 |  |  | 0.0683 | 0.0886 | 0.0937 | 0.0707 | 0.0371 | 0.075 | 0.0609 | -0.0075 | 0.0238 | 0.0532 |  | 0.0419 | 0.0383 | 
